Experiment: Stroke model, transient middle cerebral artery occlusion (tMCAO)
Assay type: in vivo
Details: mice, 60 min tMCAO, 3.2 mg/kg i.p. at 2 h and 12 h, sacrificed 24 h after tMCAO, vs vehicle
Description: FIG. 4 is a bar chart showing the infarct volume (mm3) in a mice model of stroke, where mice were treated with the inventive compound ethyl 2-(2-(4-(furan-2-carbonyl)piperazin-1-yl)acetamido)-5,6-dihydro-4H-cyclopenta[b]thiophene-3-carboxylate (“INVENTION”) or with vehicle (“CONTROL”).
The stroke disease model used in this example was mice that were subjected to transient middle cerebral artery occlusion (tMCAO) to mimic the mechanisms of ischemic stroke. Male mice weighing 20 g, was subjected to a 60 min of tMCAO as previously described (Elevers M et al., Sci. Signal 3: ra1, 2010; Bena_Erro A et al., Sci Signal 2: ra67). Sham-operated mice were used as control.
For the i.p. administrations performed in this study, 3.5 mg of ethyl 2-(2-(4-(furan-2-carbonyl)piperazin-1-yl)acetamido)-5,6-dihydro-4H-cyclopenta[b]thiophene-3-carboxylate was dissolved in 1 ml of DMSO and 5 ml of 20% Cremophor ELP in PBS then followed by additional PBS. The administered dose used in the experiment was 3.2 mg/kg and in the controls the same injection volume of vehicle was used. Administration was made at 2 h and 12 h for each mouse.
To determine infarct size and effect of Nox4 inhibitor, mice were sacrificed 24 h after tCMCAO and lesion volumes of the brain were determined according to a previously described methodology (Kleinschnitz et al, vide supra).

**Q.** For `CCOC(=O)c1c(NC(=O)CN2CCN(C(=O)c3ccco3)CC2)sc2c1CCC2` [the inventive compound, ethyl 2-(2-(4-(furan-2-carbonyl)piperazin-1-yl)acetamido)-5,6-dihydro-4H-cyclopenta[b]thiophene-3-carboxylate], which “lesion volume of the brain (infarct volume)” value is on record?
**A.** significantly lower lesion volume of the brain

From patent US20150051220A1, “COMPOUNDS FOR USE IN THERAPY” (GLUCOX BIOTECH AB, priority 2012, published 2015)
